Assay results: PMC7144120, “Psoralen Derivatives as Inhibitors of Mycobacterium tuberculosis Proteasome” (Molecules, 2020)
“Also recorded” adds a separate entry of the source.

Assays:
ß5i of IP = conditions: read-out: IC50 against ß5i of IP; cited from earlier work
Mtb proteasome [1] = target: T1, Mtb proteasome (Mycobacterium tuberculosis, UniProt P9WHT9); assay: Determination of Ki and type of inhibition (varied substrate concentration, GraphPad Prism model fit); format: biochemical
T1 construct: made in house
T1 sequence (P9WHT9 whole entry, looked up): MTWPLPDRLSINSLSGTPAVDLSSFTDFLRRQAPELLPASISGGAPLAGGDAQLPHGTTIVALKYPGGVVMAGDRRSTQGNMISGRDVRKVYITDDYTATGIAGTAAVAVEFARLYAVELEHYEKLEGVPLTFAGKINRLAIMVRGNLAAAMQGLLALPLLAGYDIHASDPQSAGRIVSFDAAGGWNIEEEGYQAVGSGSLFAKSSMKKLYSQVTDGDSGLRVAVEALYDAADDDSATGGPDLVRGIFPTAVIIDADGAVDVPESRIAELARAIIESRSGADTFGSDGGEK
Experimental: The concentrations of 11, 13 and 15 were 0, 0.56, 0.81, 1.15, 1.65, 2.35, 4.80, 9.80 and 20 µM. Further, the concentrations for compound 8 were 0, 1.65, 2.35, 4.80, 9.80 µM and for bortezomib 0, 0.28, 0.40, 0.58, 0.82, 1.18, 2.40, 4.90 and 10 µM. All experiments were performed in triplicate. The resulting data were analyzed using the GraphPad Prism 6 software and were fitted to the software provided models for competitive, noncompetitive, uncompetitive and mixed type enzyme inhibition. The mode of inhibition and Ki values were chosen from the best ranking model, as determined by the software. Representative graphs (Michaelis-Menten, Dixon and Lineweaver-Burk plots) depicting the data fit for the best ranking model of inhibition for all compounds are shown in the Supplementary data (Figures S2–S19).

Mtb proteasome [2] = target: T1, Mtb proteasome; assay: Determination of kinact/Ki values for PR-957; format: biochemical; conditions: 50 µM Suc-LLVY-AMC, 37 °C
Experimental: The kinetic assays were conducted as previously described in Enzymatic assays. Briefly, 7.8 μL of the Mtb proteasome (final concentration of 7 nM) in 20 mM HEPES buffer, pH = 7.5 with 0.5 mM EDTA was added to 0.2 μL of the compound solution at 100x final concentration in DMSO. The concentrations of PR-957 used were 0, 1.15, 1.65, 2.35, 4.80, 9.80 and 20 µM. The enzymatic reaction was initiated by the addition of 2 μL Suc-LLVY-AMC (final concentration of 50 μM) and the reaction progress was determined on a BioTek Synergy HT microplate reader, by monitoring fluorescence at 460 nm (λex = 360 nm) for 90 min at 37 °C. Values of kobs were derived from the fit of the data to the equation P = (vi/kobs)x [1 − exp(−kobs·t)] in GraphPadPrism. The data obtained were afterwards plotted against inhibitor concentration, to obtain kinact/Ki by fitting to the equation […]. The representative plots are presented in Supplementary data (Figure S33–S36).

Mtb proteasome [3] = target: T1, Mtb proteasome; format: biochemical
Mtb proteasome [4] = target: T1, Mtb proteasome; assay: biochemical; format: biochemical

Structure (SMILES): COc1ccc(C[C@H](NC(=O)[C@H](C)NC(=O)CN2CCOCC2)C(=O)N[C@@H](Cc2ccccc2)C(=O)[C@@]2(C)CO2)cc1 [PR-957, reference compound]
- IC50 (ß5i of IP): 0.015 µM
- Type of Inhibition (Mtb proteasome [1]; best ranking model (mixed, competitive, noncompetitive, uncompetitive)): Noncompetitive inhibition
- Ki (Mtb proteasome [1]; best scoring inhibition model, read-out: Ki): 5.2 µM
- kinact/KI (Mtb proteasome [2]): 96 M⁻¹ s⁻¹
- Reversibility of inhibition (Mtb proteasome [3]; Mtb proteasome, 100-fold dilution after preincubation): irreversibly inhibited; also recorded: Irreversible inhibition
- recovery of proteasome activity (Mtb proteasome [3]; concentration equal or higher than IC50): no significant recovery of proteasome activity; also recorded: completely inhibited the enzyme
- IC50 (Mtb proteasome [4]; 50 µM Suc-LLVY-AMC, 30 min preincubation, 37 °C, triplicate, read-out: IC50 against the Mtb proteasome): 2.2 ± 1 µM
- Hill Coefficient (Mtb proteasome [4]; from IC50 curve, Mtb proteasome): 0.91
